test: Human HepG2 cell viability assay in 384 well format; format: toxicity, cell-based; parameters: dose 125 nL, time 70.5 hour; concentration not given beside the values; details: HepG2 cells, read-out: Inhibition

| Structure (SMILES) | cytotoxicity at 70.5 h [%] |
| --- | --- |
| CN(CCc1ccccc1)Cc1nc(-c2cnccn2)no1 | -8.36 |
| CSc1ccccc1C(=O)C1CCCN(Cc2ccccn2)C1 (centres undefined) | -2.76 |
| COCC(=O)N1CCN(CC2CC2)c2ncccc2C1 | 15.5 |
| CN(C)C(=O)CN1CCC2(CCCN(Cc3ccoc3)C2)C1=O (centres undefined) | -13.2 |
| CC(C)C(=O)N1CCOC2(COCCN(c3ncccn3)C2)C1 (centres undefined) | -11.8 |
| Cc1ccc(CN2CCC3(CCCN(S(C)(=O)=O)C3)C2)o1 (centres undefined) | -12.7 |
| CCN1CCc2nc(N3CCOCC3)nc(NC(C)C)c2C1 | -9.45 |
| Cc1ccc(CN2CCCC3(CCN(Cc4ccc(C)o4)C3)C2)o1 (centres undefined) | -11.5 |
| CN(C)CC(=O)N1CCC2(CC1)COCCN(Cc1ccncc1)C2 | -8.72 |
| CN(C)C(=O)N1CCCC2(CCN(c3ccsc3)C2=O)C1 (centres undefined) | -6.16 |
| Cc1nc(NCC2CC2)nc2c1COCC21CCNC1 (centres undefined) | 5.46 |
| CC(C)N(C)Cc1cn2c(n1)CN(C(=O)c1ccc[nH]1)CC2 | -5.19 |
| Cn1nccc1C(=O)N1CCN(C(=O)C2CC2)[C@@H]2CS(=O)(=O)C[C@@H]21 | -5.45 |
| CC(C)SCCn1ccc2[nH]c(=O)c(C#N)cc2c1=O | -8.8 |
| Cn1nc(CN2CCCN(C3CCCC3)CC2)c2c(Cl)cccc21 | -6.04 |
| COc1cc2c(cc1C1CC(=O)NCc3nc(N(C)C)sc31)CCC2 (centres undefined) | 0.498 |
| CCn1nc(C)c(CCn2ccnc2-c2cc3n(n2)CCNC3)c1C | -0.934 |
| CCN(CCOc1ccc(F)cc1)C(=O)c1ccncc1Cl | -2.29 |
| COCC(O)CNC(=O)c1cc(COc2ccc3c(c2)CCCC3)on1 (centres undefined) | -4.42 |
| CC(CCN1CCC(n2cc(CCO)nn2)CC1)c1ccccc1 (centres undefined) | -8.84 |
| CCN1CC(CN(C)Cc2nc(-c3cccc(Cl)c3)oc2C)CC1=O (centres undefined) | -6.94 |
| O=C(CCc1cc(Cl)no1)N1CCN(CCn2cncn2)CC1 | -0.942 |

| Structure (SMILES) | cytotoxicity at 70.5 h [%] |
| --- | --- |
| COc1cccc2c1OCC(NCCCOc1cccnc1)C2 (centres undefined) | -5.15 |
| CCC(C)NC(=O)c1coc(COc2cccc(F)c2)n1 (centres undefined) | -3.12 |
| CC(=O)N1CCCC(C(=O)NCCc2nc(Cc3ccccc3)no2)C1 (centres undefined) | -13.3 |
| CSCc1noc(CNC(=O)C2CCN(C(=O)C3CC3)CC2)n1 | -17.4 |
| Cc1cc2nc(C(C)C)cc(N3CCC(O)CC3)n2n1 | -9.55 |
| COCCN(Cc1cnn(C)c1)CC1CCOC1 (centres undefined) | -6.85 |
| CCc1c(C(=O)N2CCC3(CC(=O)NC3=O)C2)csc1C (centres undefined) | -5.51 |
| CCN1CCN(C[C@@H]2CN(c3ncccc3F)C[C@@H]2CO)CC1 | 23.4 |
| NS(=O)(=O)c1ccc(F)c(C(=O)NCCSc2ccccn2)c1 | -4.06 |
| COCCCC1CCN([C@@H]2c3ccccc3C3(CCNCC3)[C@H]2O)CC1 | -1.24 |
| COc1cccc(-n2cc(-c3ccnc(N[C@@H](CO)C(C)C)n3)cn2)c1 | 13.3 |
| Cc1cccc2[nH]c(C3CCN(C(=O)c4cnc[nH]c4=O)CC3)nc12 | -1.84 |
| CC(C)(C)C(=O)N1CCCC1c1ccc(C(=O)N2CCOCC2)s1 (centres undefined) | 16.2 |
| CCNc1ncc(C(=O)NCCNc2ccncc2C)cn1 | 3.69 |
| COc1ccc(Cc2nc3c([nH]2)CC(C)(C)CNC3=O)cc1OC | -8.64 |
| CCCc1cc(C(=O)N2CCC3(CC2)CN(CCN(C)C)C(=O)O3)no1 | -0.0862 |
| CN(C)C(=O)c1cn2cc(-c3cccc(Cl)c3)n(CC3CC3)c(=O)c2n1 | -5.52 |
| CSc1ccccc1C(=O)N(C)C1CCCN(CCc2ccccc2)C1 (centres undefined) | -5.22 |
| COC(=O)NCC(=O)N1CCCn2nc(CN3CC[C@H](F)C3)cc2C1 | -3.88 |
| O=C(N[C@H]1CN(c2nc(CO)cs2)C[C@@H]1C1CC1)C1CCCCC1 | -6.79 |
| COc1ccccc1-n1nc(-c2ccco2)n(CC(=O)NC2CC2)c1=O | 10.2 |
| Cc1cc(NCc2ccc(C#N)cc2)n2nc(C)cc2n1 | -4.7 |

| Structure (SMILES) | cytotoxicity at 70.5 h [%] |
| --- | --- |
| CC(C)N1CCC(C(=O)N2CCN(c3cccc(C(=O)O)c3)CC2)CC1 | -9.74 |
| O=C(c1cccnc1-c1ccoc1)N1C[C@H]2CC[C@@H]1C2 | -10.4 |
| CN1C[C@@H](n2cnc(-c3ccccc3)c2-c2ccccn2)C[C@H]1C(=O)O | -10 |
| CN(Cc1n[nH]c2c1CCCC2)c1nc2c(c(=O)[nH]1)CCNCC2 | -4.95 |
| COc1cccc(C(C(=O)O)N2CCCN(c3ccnc(C)c3)CC2)c1 (centres undefined) | -7.15 |
| COc1ccc2nc(CNC(=O)C3CC4(CCNCC4)CN3C)[nH]c2c1 (centres undefined) | -20.5 |
| COc1cc(C)cc(OC)c1C(C(=O)O)N(C)Cc1c(C)nn(C)c1C (centres undefined) | -14.7 |
| COC(=O)c1cc(OCC2CCC2)cc(C(=O)NCC(C)(C)O)c1 | -4.36 |
| Cc1ccc2c(c1)SCC(=O)N2Cc1noc(C2CCCO2)n1 (centres undefined) | -11.5 |
| CCn1c(C)nnc1SCCn1cc(-c2nccs2)nn1 | -7.44 |
| Cc1ccc(N2CCCN(CC3CC3)C(C(C)C)C2)nn1 (centres undefined) | -14.3 |
| CC(C)(C)c1cn(C2CCN(C3CCSC3)CC2)nn1 (centres undefined) | -7.05 |
| O=C(CCN1CCCCO1)NC1CCCN(CC2CCCCC2)C1 (centres undefined) | -8.52 |
| CS(=O)(=O)NCC1(O)CCCN(C(=O)CCn2cc(Cl)cn2)CC1 (centres undefined) | -1.38 |
| Cc1nn(C)c(C)c1CN(Cc1cccn1-c1ncccn1)C(C)C | 3.54 |
| Cc1cc(C(=O)NCCC2CN(C)CCO2)c2cccc(C)c2n1 (centres undefined) | -11.4 |
| CCC(Nc1cccc(OC)c1)C(=O)NCc1ccc2c(c1)OCO2 (centres undefined) | -8.45 |
| CCc1oc(C(=O)NC(C)Cc2cnccn2)cc1CN1CCCC1 (centres undefined) | -14.2 |
| C[C@@H]1CN(C2(C(=O)N(C)C)Cc3ccccc3C2)C[C@H](C)O1 | 13.4 |
| Cc1cc(C)n(C2CN(C(=O)c3cn4ccsc4n3)C2)n1 | 2.53 |
| CC(=O)N1C[C@@H]2CC[C@H](C1)N(S(=O)(=O)c1ccccc1Cl)C2 | -14.4 |
| Cc1ccc(CNC(=O)c2cc(Cn3ccnc3C(C)C)[nH]n2)o1 | 20.2 |

| Structure (SMILES) | cytotoxicity at 70.5 h [%] |
| --- | --- |
| CCN(Cc1noc(C2CCC2)n1)C(=O)c1cn2ccsc2n1 | 14.6 |
| CC(Nc1ncnc2c1CCNCC2)c1nc2c(s1)CCCC2 (centres undefined) | -5.82 |
| O=C(Nc1ccc(F)c(Cl)c1)N1CCCN([C@H]2COC[C@@H]2O)CC1 | -14.1 |
| Cc1cccnc1CCNC(=O)[C@@]12CNC[C@@H]1CN(S(C)(=O)=O)C2 | -1.74 |
| CCC1CCN(CCn2cnc3c(C)csc3c2=O)CC1 | -6.08 |
| Cc1cccc2c1nc(COCC(=O)O)n2-c1cnc(N)cn1 | -4.53 |
| CCC(CC)CN1CCC(n2cc(C3CCCC3)nn2)CC1 | -3.87 |
| FC(F)(F)CCc1ccnc(NCc2csc(N3CCOCC3)n2)n1 | -10.4 |
| COc1ccc(CC2CN(C(=O)c3ocnc3C)CCO2)cc1 (centres undefined) | 14.4 |
| CN(CCn1ccnc1-c1ccccn1)S(C)(=O)=O | 11.9 |
| c1ccc(Oc2nccc3occc23)c(CN2CCCCC2)c1 | 6.4 |
| Cc1ccc2nc(C(=O)N3CCNC(=O)C3c3cccc(F)c3)cn2c1 (centres undefined) | 24.1 |
| O=c1[nH]c(-c2ccc(F)cc2)nc2c1CCNC2 | -0.466 |
| CCNC(=O)[C@@H]1C[C@H](N)CN1Cc1ccc(-c2ccccc2C#N)o1 | 9.56 |
| COCCCC1CCCCN1S(=O)(=O)c1cccc(C#N)c1 (centres undefined) | 4.41 |
| COCC1(NC(=O)C(c2ccc(F)cc2)N(C)C)CCCC1 (centres undefined) | 7.27 |
| CCc1cc(-c2ccnc3c2ccn3C)nc(N2CCOCC2)n1 | 1.11 |
| CCN(CC)S(=O)(=O)N1C[C@@H]2CC[C@H](C1)N(Cc1cscn1)C2=O | -9.09 |
| O=C1N(CCO)CCCC12CCN(Cc1nnc(C3CC3)o1)C2 (centres undefined) | 0.803 |
| CNCCNc1ccc(-c2nc(-c3cccc(OC)c3OC)no2)cn1 | -2.42 |
| O=C(c1ccc(F)c(F)c1)N1CCC(Cn2cc(CO)nn2)CC1 | -3.06 |
| NC(=O)CCn1cc(CNCCCc2csc(N)n2)c2ccccc21 | -6.3 |

| Structure (SMILES) | cytotoxicity at 70.5 h [%] |
| --- | --- |
| Cc1nc(-c2c(-c3ccccc3)ncn2[C@H]2C[C@@H](C(=O)O)N(C)C2)co1 | -11.1 |
| COCCN1C(=O)[C@H]2CC[C@@H]1CN(C(=O)Cc1c(F)cccc1Cl)C2 | -8.61 |
| Cc1cc(C(=O)N2CCO[C@H]3[C@H](Oc4ccccn4)CC[C@@H]32)c(C)[nH]1 | -8.01 |
| Cc1ccc(C(=O)N2CC[C@H]3[C@@H]2CCC(=O)N3c2cccnc2)o1 | -13.5 |
| c1csc(CN2CCCn3nnc(COCC4CC4)c3C2)n1 | -11 |
| COCC1CN(C(=O)c2cccc(C)n2)Cc2nccn2C1 (centres undefined) | -10.2 |
| Cc1cccc(CN2CCCC3(CCN(CC(=O)N(C)C)C3=O)C2)n1 (centres undefined) | -13.1 |
| Cn1cc(CN2C[C@@H]3COC[C@]3(CNC(=O)c3ccco3)C2)cn1 | -10.1 |
| Cc1cc(CN2C[C@@H]3COC[C@]3(CNC(=O)c3ccco3)C2)no1 | -7.96 |
| COCCNC(=O)[C@H]1C[C@@H]2CCN(CCc3ccccc3)C[C@@H]2O1 | -4.71 |
| COCCC(=O)N1CC2(CCN(Cc3ccccc3Cl)CC2)C1 | 12.5 |
| Cc1cncc(C(=O)N2CCO[C@H]3[C@H](Oc4ccccn4)CC[C@@H]32)c1 | -12.4 |
| Cn1cccc1C(=O)NCc1cn2c(n1)CN(Cc1cccnc1)CC2 | -12.8 |
| CN(C)CCN1CCC2(CCCN(Cc3cccn3C)C2)C1=O (centres undefined) | -11.1 |
| O=C(C1CCCO1)N1CCC2(CC1)COCCN(Cc1ccncc1)C2 (centres undefined) | -9.52 |
| Cc1ccc2c(n1)N(CCN(C)C)CCN(C(=O)c1cscn1)C2 | -7.14 |
| c1cncc(COC[C@H]2CC[C@H]3[C@H](CCN3Cc3nccs3)O2)c1 | -0.559 |
| Cc1ccc(CN2CCOC3(COCCN(Cc4ccncc4)C3)C2)o1 (centres undefined) | -13.7 |
| CN(C)CCN1CCOCC2(C1)CN(Cc1ccco1)CCO2 (centres undefined) | -17.1 |
| Cc1cc(C)cc(CN2C[C@H]3COC[C@H](N4CCN(C)CC4)[C@H]3C2)c1 | -6.19 |
| Fc1cccc(N2CCCC3(CN(Cc4cccnc4)CCO3)C2)c1 (centres undefined) | -6.89 |
